Experimental data published in patent publication US20160346249A1 (priority 2012, published 2016).

What was measured:
human recombinant MAO-B = molecular target: T1, human recombinant MAO-B (Homo sapiens, UniProt P27338); experiment: Metabolism by recombinant MAO-B; assay type: in vitro ADME
T1 construct: purchased BD Biosciences, Woburn, Mass
T1 sequence (P27338 1-520): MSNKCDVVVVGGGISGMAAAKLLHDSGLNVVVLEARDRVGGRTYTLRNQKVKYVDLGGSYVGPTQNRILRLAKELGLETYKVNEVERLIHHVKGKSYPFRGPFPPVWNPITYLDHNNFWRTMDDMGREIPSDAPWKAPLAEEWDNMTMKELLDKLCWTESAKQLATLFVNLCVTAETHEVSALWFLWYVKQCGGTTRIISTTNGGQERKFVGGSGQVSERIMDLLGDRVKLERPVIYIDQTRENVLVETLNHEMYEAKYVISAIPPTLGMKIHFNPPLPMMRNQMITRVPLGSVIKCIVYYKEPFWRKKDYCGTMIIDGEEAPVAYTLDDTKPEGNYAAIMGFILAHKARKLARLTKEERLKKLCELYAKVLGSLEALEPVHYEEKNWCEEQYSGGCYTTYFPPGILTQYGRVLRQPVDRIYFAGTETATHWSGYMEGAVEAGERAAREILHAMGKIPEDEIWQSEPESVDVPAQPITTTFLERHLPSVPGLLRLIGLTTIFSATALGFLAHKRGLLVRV
Experimental: Incubation systems (ca. 0.2 mL) of human recombinant MAO-A (1.0 mg/mL) and MAO-B (1.0 mg/mL) (BD Biosciences, Woburn, Mass.) were prepared in triplicated 0.1 M potassium phosphate buffer (pH 7.4) (BD Biosciences, Woburn, Mass.). […] The negative samples were prepared as described above, with the exception that instead of HLM, HLmito, or recombinant enzymes, water was added to the incubation mixture.

in vitro = in vitro ADME; conditions: human, Caco-2, pH 7.4
Experimental: (§1) (Kalamazoo, Mich.). […] Receiver solutions consisted of buffer only. Sequential samples of transported solute are taken at 20 minute intervals in duplicate over 2 hours and the concentration of the transported compound was determined by HPLC-UV/MS. Test sample concentration is determined by LC/MS. Permeability coefficients are calculated for each sampling interval, and averages from the intervals were determined. The apparent permeability coefficient Papp is calculated from the equation where dQ/dt is the rate of permeation of drug across the cells, C0 is the original concentration in donor compartment at time zero, and A is the area of the cell monolayer. Mass balance in the system is ascertained by comparing the sum of transported solute and remaining donor solute to the starting solution concentration. The integrity of the monolayers is verified by monitoring Lucifer yellow permeation and the known P-glycoprotein substrate […] is used as a positive control.

Caco-2 cells = experiment: in vitro; assay type: in vitro ADME; conditions: human, Caco-2, 2 h, 10 μM, pH 7.4
Experimental: as §1

[1] = Rat developmental toxicity study with toxicokinetics; assay type: in vivo; conditions: for AUC(0-t) / Cmax / Tmax: female, Crl:CD(SD)IGS BR, rat, in vivo, pregnant rats; for AUC(0-t): read-out: AUC0-24
Description: For the toxicology assessment, there were twenty-five mated females/group.
Females that delivered early were necropsied on the day of delivery. […] The fetuses were weighed, sexed, and examined for external, visceral, and skeletal malformations and developmental variations.

[2] = Female rat fertility study
Experimental: Physical signs, body weight, and food consumption were recorded periodically. Females were housed for up to 20 nights 1:1 with untreated males following 3 weeks of treatment. During cohabitation, vaginal lavages were performed daily. The presence of sperm in the lavage or a vaginal plug was considered positive evidence of mating. […] The day of confirmed mating was considered GD 0. Females with a confirmed mating were euthanized between GD 15 and 17. The uterus of each female was examined to determine pregnancy status. If there was no gross evidence of pregnancy, the uterus was stained with ammonium sulfide to visualize any early implantation sites. Corpora lutea per female were counted. Uterine implantations were counted, and each was classified as a live fetus, dead fetus, or a resorption. Fetuses were euthanized by rapid induction of hypothermia and discarded without further examination.

[3] = 2-week dog toxicity and toxicokinetic study; assay type: in vivo
Experimental: Blood samples were collected on Day 0 and Day 13 of the study from up to 2 animals/gender/group.
Clinical pathology evaluations (hematology and serum chemistry) were performed prior to the initiation of treatment (Week −1) and just prior to the scheduled necropsy. At termination, necropsies were conducted and selected organs were weighed. Selected tissues were examined microscopically for animals in the control and high-dose groups.

[4] = po, 3 mg/kg/day, 3 mg/kg/day, GD 6
[5] = po, 3 mg/kg/day, 3 mg/kg/day, GD 17
[6] = po, 20 mg/kg/day, 20 mg/kg/day, GD 6
[7] = po, 20 mg/kg/day, 20 mg/kg/day, GD 17
[8] = female, beagle, in vivo, po, 5 mg/kg/day, females, 5 mg/kg/day, Day 0
[9] = female, beagle, in vivo, po, 5 mg/kg/day, females, 5 mg/kg/day, Day 13
[10] = female, beagle, in vivo, po, 10 mg/kg/day, females, 10 mg/kg/day, Day 0
[11] = female, beagle, in vivo, po, 10 mg/kg/day, females, 10 mg/kg/day, Day 13
[12] = female, beagle, in vivo, po, 20 mg/kg/day, females, 20 mg/kg/day, Day 0
[13] = male, beagle, in vivo, po, 5 mg/kg/day, males, 5 mg/kg/day, Day 0
[14] = male, beagle, in vivo, po, 5 mg/kg/day, males, 5 mg/kg/day, Day 13
[15] = male, beagle, in vivo, po, 10 mg/kg/day, males, 10 mg/kg/day, Day 0
[16] = male, beagle, in vivo, po, 10 mg/kg/day, males, 10 mg/kg/day, Day 13
[17] = male, beagle, in vivo, po, 20 mg/kg/day, males, 20 mg/kg/day, Day 0
[18] = male, beagle, in vivo, po, 20 mg/kg/day, males, 20 mg/kg/day, Day 13

## O=C1NCC2(c3ccc(Cl)c(Cl)c3)CC12 (stereo not drawn) [EB-10101, 5-(3,4-dichloro-phenyl)-3-aza-bicyclo[3.1.0]hexan-2-one]
Human recombinant MAO-B
  MAO-B mediation of formation: not MAO-B mediated

## Clc1ccc([C@]23CNC[C@H]2C3)cc1Cl [amitifadine, (+)-1-(3,4-dichlorophenyl)-3-azabicyclo[3.1.0]hexane]
In vitro
  recovery at 2 h, 10 μM: 62%
Caco-2 cells
  Mass balance, AP→BL: 62%
  Mass balance, BL→AP: (88%)
[1]; oral, 10 mg/kg/day, 10 mg/kg/day, GD 17
  AUC(0-t): 11200 ng·h/mL
[1]; [4]
  Cmax: 387 ng/mL
  AUC(0-t): 2570 ng·h/mL
[1]; [5]
  Cmax: 397 ng/mL
  AUC(0-t): 2620 ng·h/mL
[1]; po, 10 mg/kg/day, 10 mg/kg/day, GD 6
  AUC(0-t): 10900 ng·h/mL
[1]; po, 10 mg/kg/day, 10 mg/kg/day, GD 17
  Cmax: 1300 ng/mL
[1]; [6]
  Cmax: 1970 ng/mL
  AUC(0-t): 19500 ng·h/mL
[1]; [7]
  Cmax: 1890 ng/mL
  AUC(0-t): 19700 ng·h/mL
[1]; po, 3 mg/kg/day, GD 6
  Tmax: 2 h
[1]; po, 10 mg/kg/day, GD 6
  Tmax: 2 h
[1]; po, 20 mg/kg/day, GD 6
  Tmax: 2 h
[1]; oral gavage GD 6-17
  NOEL for developmental toxicity: 10 mg/kg/day
[2]; 34 mg/kg/day, first 4 days
  body weight loss: -26 g
  decreased food consumption: −50%
[2]; female rats
  NOEL reproductive performance: ≥ 34 mg/kg/day
[2]; female, Crl:CD(SD), rat, in vivo
  NOEL general toxicity: 9 mg/kg/day
[3]
  (+) to (−) stereoisomer conversion: no evidence of (+) to (−) stereoisomer conversion
[3]; both sexes, beagle, in vivo, oral capsule, 14 days, read-out: NOAEL for systemic toxicity
  NOAEL at 14 days: 10 mg/kg/day
[3]; female, beagle, in vivo, oral, 10 mg/kg/day, females, 10 mg/kg/day, Day 13, read-out: AUC0-24
  AUC(0-t): 11200 ng·h/mL
[3]; [8]
  Cmax: 1650 ng/mL
  Tmax: 2 h
[3]; female, beagle, in vivo, po, 5 mg/kg/day, females, 5 mg/kg/day, Day 0, read-out: AUC0-24
  AUC(0-t): 5570 ng·h/mL
[3]; [9]
  Cmax: 2040 ng/mL
  Tmax: 1 h
[3]; female, beagle, in vivo, po, 5 mg/kg/day, females, 5 mg/kg/day, Day 13, read-out: AUC0-24
  AUC(0-t): 5610 ng·h/mL
[3]; [10]
  Cmax: 3450 ng/mL
  Tmax: 1 h
[3]; female, beagle, in vivo, po, 10 mg/kg/day, females, 10 mg/kg/day, Day 0, read-out: AUC0-24
  AUC(0-t): 15000 ng·h/mL
[3]; [11]
  Cmax: 2800 ng/mL
  Tmax: 2 h
[3]; [12]
  Cmax: 9950 ng/mL
  Tmax: 1 h
[3]; female, beagle, in vivo, po, 20 mg/kg/day, females, 20 mg/kg/day, Day 0, read-out: AUC0-24
  AUC(0-t): 57100 ng·h/mL
[3]; female, beagle, in vivo, po, 20 mg/kg/day, females, 20 mg/kg/day, Day 13
  Cmax: 3530 ng/mL
[3]; female, beagle, in vivo, po, 20 mg/kg/day, females, 20 mg/kg/day, Day 13, read-out: AUC0-24
  AUC(0-t): 11500 ng·h/mL
[3]; male, beagle, in vivo, oral, 10 mg/kg/day, males, 10 mg/kg/day, Day 13, read-out: AUC0-24
  AUC(0-t): 3170 ng·h/mL
[3]; [13]
  Cmax: 1580 ng/mL
  Tmax: 1 h
[3]; male, beagle, in vivo, po, 5 mg/kg/day, males, 5 mg/kg/day, Day 0, read-out: AUC0-24
  AUC(0-t): 7360 ng·h/mL
[3]; [14]
  Cmax: 1840 ng/mL
  Tmax: 2 h
[3]; male, beagle, in vivo, po, 5 mg/kg/day, males, 5 mg/kg/day, Day 13, read-out: AUC0-24
  AUC(0-t): 7550 ng·h/mL
[3]; [15]
  Cmax: 3830 ng/mL
  Tmax: 1 h
[3]; male, beagle, in vivo, po, 10 mg/kg/day, males, 10 mg/kg/day, Day 0, read-out: AUC0-24
  AUC(0-t): 13800 ng·h/mL
[3]; [16]
  Cmax: 1280 ng/mL
  Tmax: 1 h
[3]; [17]
  Cmax: 11600 ng/mL
  Tmax: 1 h
[3]; male, beagle, in vivo, po, 20 mg/kg/day, males, 20 mg/kg/day, Day 0, read-out: AUC0-24
  AUC(0-t): 41700 ng·h/mL
[3]; [18]
  Cmax: 9280 ng/mL
  Tmax: 1 h
[3]; male, beagle, in vivo, po, 20 mg/kg/day, males, 20 mg/kg/day, Day 13, read-out: AUC0-24
  AUC(0-t): 32800 ng·h/mL
